The text below walks through data of patent publication US7932270B2 (Cytokinetics, Inc., priority 2006, dated 2011).

T1 sequence (P02607 2-151): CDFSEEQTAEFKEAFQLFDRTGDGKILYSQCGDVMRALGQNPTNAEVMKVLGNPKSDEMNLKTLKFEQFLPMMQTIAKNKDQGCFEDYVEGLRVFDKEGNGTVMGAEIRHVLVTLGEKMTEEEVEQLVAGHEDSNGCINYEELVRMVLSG
T1 sequence (P10587 84-789): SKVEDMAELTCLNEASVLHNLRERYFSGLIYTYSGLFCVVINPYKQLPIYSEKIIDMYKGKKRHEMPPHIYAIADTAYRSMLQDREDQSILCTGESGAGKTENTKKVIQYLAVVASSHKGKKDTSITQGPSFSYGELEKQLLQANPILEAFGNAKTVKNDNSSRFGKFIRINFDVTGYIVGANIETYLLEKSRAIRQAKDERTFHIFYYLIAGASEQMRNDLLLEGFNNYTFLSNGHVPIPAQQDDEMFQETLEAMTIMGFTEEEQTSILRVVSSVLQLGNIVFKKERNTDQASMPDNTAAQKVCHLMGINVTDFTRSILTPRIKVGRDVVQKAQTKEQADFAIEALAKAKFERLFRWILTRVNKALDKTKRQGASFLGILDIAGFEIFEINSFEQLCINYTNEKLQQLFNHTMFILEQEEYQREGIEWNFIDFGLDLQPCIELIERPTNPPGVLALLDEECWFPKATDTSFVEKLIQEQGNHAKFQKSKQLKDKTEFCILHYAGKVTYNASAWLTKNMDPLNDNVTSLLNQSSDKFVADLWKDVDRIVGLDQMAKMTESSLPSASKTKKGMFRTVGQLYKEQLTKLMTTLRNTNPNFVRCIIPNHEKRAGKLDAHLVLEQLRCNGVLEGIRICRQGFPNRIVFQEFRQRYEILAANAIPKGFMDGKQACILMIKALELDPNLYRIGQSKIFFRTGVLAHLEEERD

The experiment addresses T1, chicken gizzard smooth muscle myosin subfragment-1 chemically crosslinked to cardiac or skeletal actin (Gallus gallus, UniProt P10587).
T1 construct: chicken gizzard smooth muscle myosin subfragment-1; from tissue; host or cells: chicken gizzard
Put plainly: Smooth muscle myosin ATPase dose response assay (pyruvate kinase/horseradish peroxidase/pyruvate oxidase-coupled, amplex red fluorescence). In kind it is biochemical. The conditions noted are these: read-out: IC50 Arithmetic Mean. Summed up:
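Readout is amplex red signal from coupled ATPase of actin-crosslinked gizzard myosin S1 (0.15 mM ATP, 12 mM K-PIPES, pH 7.00). IC50 is the half-maximal activity point of a four-parameter Hill fit.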
In general, IC50 refers to the concentration that gives 50% inhibition. Turning to `N#Cc1ccccc1-c1ccc(C(=O)N[C@@H](CN)C(N)=O)c(NCCc2cccc(F)c2)n1` [N-((1S)-2-amino-1-carbamoylethyl)(6-(2-cyanophenyl)-2-{[2-(3-fluorophenyl)ethyl]amino}(3-pyridyl))carboxamide], the half-inhibitory concentration (IC50) came out at 816 nM. With `N#Cc1ccccc1-c1ccc(C(=O)N[C@@H](CCCN)C(N)=O)c(NCCc2cccc(F)c2)n1` [N-((1S)-4-amino-1-carbamoylbutyl)(6-(2-cyanophenyl)-2-{[2-(3-fluorophenyl)ethyl]amino}(3-pyridyl))carboxamide] the figure was 5400 nM; with `N#Cc1ccccc1-c1ccc(C(=O)N[C@@H](CCCCN)C(N)=O)c(NCCc2cccc(F)c2)n1` [N-((1S)-5-amino-1-carbamoylpentyl)(6-(2-cyanophenyl)-2-{[2-(3-fluorophenyl)ethyl]amino}(3-pyridyl))carboxamide], 4420 nM.

As to `N#Cc1ccccc1-c1ccc(C(=O)NC[C@@H](N)C(N)=O)c(NCCc2cccc(F)c2)n1` [N-((2R)-2-amino-2-carbamoylethyl)(6-(2-cyanophenyl)-2-{[2-(3-fluorophenyl)ethyl]amino}(3-pyridyl))carboxamide], the IC50 came to 321 nM.

As for `Cn1cc(-c2nc(NCCc3cccc(F)c3)c(C(=O)NC[C@@H](N)CO)cc2F)cn1` [N-((2R)-2-amino-3-hydroxypropyl)(5-fluoro-2-{[2-(3-fluorophenyl)ethyl]amino}-6-(1-methylpyrazol-4-yl)(3-pyridyl))carboxamide], the IC50 was 1260 nM.

As to `N[C@@H](CO)CNC(=O)c1cc(F)c(-c2cn[nH]c2)nc1NCCc1cccc(F)c1` [N-((2R)-2-amino-3-hydroxypropyl)(5-fluoro-2-{[2-(3-fluorophenyl)ethyl]amino}-6-pyrazol-4-yl(3-pyridyl))carboxamide], the IC50 is 1820 nM. With `CC(C)C[C@@H](N)CNC(=O)c1ccc(-c2ccccc2C#N)nc1NCCc1cccc(F)c1` [N-((2R)-2-amino-4-methylpentyl)(6-(2-cyanophenyl)-2-{[2-(3-fluorophenyl)ethyl]amino}(3-pyridyl))carboxamide] the figure was 1240 nM; with `C[C@@H](N)CNC(=O)c1cc(F)c(-c2cnn(C)c2)nc1NCCc1cccc(F)c1` [N-((2R)-2-aminopropyl)(5-fluoro-2-{[2-(3-fluorophenyl)ethyl]amino}-6-(1-methylpyrazol-4-yl)(3-pyridyl))carboxamide], 398 nM. In the case of `C[C@@H](N)CNC(=O)c1cc(F)c(-c2cn[nH]c2)nc1NCCc1cccc(F)c1` [N-((2R)-2-aminopropyl)(5-fluoro-2-{[2-(3-fluorophenyl)ethyl]amino}-6-pyrazol-4-yl(3-pyridyl))carboxamide], the half-inhibitory concentration (IC50) is 443 nM.

On to `C[C@@H](N)CNC(=O)c1ccc(-c2ccccc2C#N)nc1NCCc1cccc(F)c1` [N-((2R)-2-aminopropyl)(6-(2-cyanophenyl)-2-{[2-(3-fluorophenyl)ethyl]amino}(3-pyridyl))carboxamide], for which the IC50 is 399 nM. Next, `C[C@H](CNC(=O)c1cc(F)c(-c2cnn(C)c2)nc1NCCc1cccc(F)c1)C(N)=O` [N-((2R)-2-carbamoylpropyl)(5-fluoro-2-{[2-(3-fluorophenyl)ethyl]amino}-6-(1-methylpyrazol-4-yl)(3-pyridyl))carboxamide]: 89 nM.

As for `CC[C@@H](CO)CNC(=O)c1cc(F)c(-c2cnn(C)c2)nc1NCCc1cccc(F)c1` [N-((2R)-2-ethyl-3-hydroxypropyl)(5-fluoro-2-{[2-(3-fluorophenyl)ethyl]amino}-6-(1-methylpyrazol-4-yl)(3-pyridyl))carboxamide], the IC50 is 39 nM. With `CC[C@@H](CO)CNC(=O)c1cc(F)c(-c2cn[nH]c2)nc1NCCc1cccc(F)c1` [N-((2R)-2-ethyl-3-hydroxypropyl)(5-fluoro-2-{[2-(3-fluorophenyl)ethyl]amino}-6-pyrazol-4-yl(3-pyridyl))carboxamide] the figure was 52 nM; with `CC(=O)[C@H](C)CNC(=O)c1cc(F)c(-c2cnn(C)c2)nc1NCCc1cccc(F)c1` [N-((2R)-2-methyl-3-oxobutyl)(5-fluoro-2-{[2-(3-fluorophenyl)ethyl]amino}-6-(1-methylpyrazol-4-yl)(3-pyridyl))carboxamide], 109 nM. With `C[C@H](CNC(=O)c1cc(F)c(-c2cnn(C)c2)nc1NCCc1cccc(F)c1)C(C)(C)O` [N-((2R)-3-hydroxy-2,3-dimethylbutyl)(5-fluoro-2-{[2-(3-fluorophenyl)ethyl]amino}-6-(1-methylpyrazol-4-yl)(3-pyridyl))carboxamide] the figure was 1230 nM; with `CC(O)[C@H](C)CNC(=O)c1cc(F)c(-c2cnn(C)c2)nc1NCCc1cccc(F)c1` (stereo partly drawn) [N-((2R)-3-hydroxy-2-methylbutyl)(5-fluoro-2-{[2-(3-fluorophenyl)ethyl]amino}-6-(1-methylpyrazol-4-yl)(3-pyridyl))carboxamide], 283 nM; with `C[C@@H](CO)CNC(=O)c1cc(F)c(-c2cnn(C)c2)nc1NCCc1cccc(F)c1` [N-((2R)-3-hydroxy-2-methylpropyl)(5-fluoro-2-{[2-(3-fluorophenyl)ethyl]amino}-6-(1-methylpyrazol-4-yl)(3-pyridyl))carboxamide], 50 nM.

On to `C[C@@H](CO)CNC(=O)c1cc(F)c(-c2cn[nH]c2)nc1NCCc1cccc(F)c1` [N-((2R)-3-hydroxy-2-methylpropyl)(5-fluoro-2-{[2-(3-fluorophenyl)ethyl]amino}-6-pyrazol-4-yl(3-pyridyl))carboxamide], for which the IC50 was 59 nM. With `C[C@@H](CO)CNC(=O)c1ccc(-c2ccccc2C#N)nc1NCCc1cccc(F)c1` [N-((2R)-3-hydroxy-2-methylpropyl)(6-(2-cyanophenyl)-2-{[2-(3-fluorophenyl)ethyl]amino}(3-pyridyl))carboxamide] the figure was 61 nM; with `C[C@@H](CN=[N+]=[N-])CNC(=O)c1cc(F)c(-c2cnn(C)c2)nc1NCCc1cccc(F)c1` [N-((2R)-4-diazo-2-methyl-4-azabut-4-enyl)(5-fluoro-2-{[2-(3-fluorophenyl)ethyl]amino}-6-(1-methylpyrazol-4-yl)(3-pyridyl))carboxamide], 118 nM; with `N#Cc1ccccc1-c1ccc(C(=O)NC[C@H](N)C(N)=O)c(NCCc2cccc(F)c2)n1` [N-((2S)-2-amino-2-carbamoylethyl)(6-(2-cyanophenyl)-2-{[2-(3-fluorophenyl)ethyl]amino}(3-pyridyl))carboxamide], 669 nM. With `N#Cc1ccccc1-c1ccc(C(=O)NC[C@H](N)CO)c(NCCc2cccc(F)c2)n1` [N-((2S)-2-amino-3-hydroxypropyl)(6-(2-cyanophenyl)-2-{[2-(3-fluorophenyl)ethyl]amino}(3-pyridyl))carboxamide] the figure was 1590 nM; with `C[C@H](N)CNC(=O)c1ccc(-c2ccccc2C#N)nc1NCCc1cccc(F)c1` [N-((2S)-2-aminopropyl)(6-(2-cyanophenyl)-2-{[2-(3-fluorophenyl)ethyl]amino}(3-pyridyl))carboxamide], 515 nM; with `C[C@@H](CN)CNC(=O)c1cc(F)c(-c2cnn(C)c2)nc1NCCc1cccc(F)c1` [N-((2S)-3-amino-2-methylpropyl)(5-fluoro-2-{[2-(3-fluorophenyl)ethyl]amino}-6-(1-methylpyrazol-4-yl)(3-pyridyl))carboxamide], 1050 nM. Next, `C[C@H](CO)CNC(=O)c1cc(F)c(-c2cnn(C)c2)nc1NCCc1cccc(F)c1` [N-((2S)-3-hydroxy-2-methylpropyl)(5-fluoro-2-{[2-(3-fluorophenyl)ethyl]amino}-6-(1-methylpyrazol-4-yl)(3-pyridyl))carboxamide]: 90 nM. `N#Cc1ccccc1-c1ccc(C(=O)N[C@@H]2CCCNC2=O)c(NCCc2cccc(F)c2)n1` [N-((3R)-2-oxo(3-piperidyl))(6-(2-cyanophenyl)-2-{[2-(3-fluorophenyl)ethyl]amino}(3-pyridyl))carboxamide]: the IC50 turned out to be 352 nM. Next, `N#Cc1ccccc1-c1ccc(C(=O)N[C@H]2CCCNC2=O)c(NCCc2cccc(F)c2)n1` [N-((3S)-2-oxo(3-piperidyl))(6-(2-cyanophenyl)-2-{[2-(3-fluorophenyl)ethyl]amino}(3-pyridyl))carboxamide]: 5610 nM. Take `N#Cc1ccccc1-c1ccc(C(=O)N[C@H]2CCNC2=O)c(NCCc2cccc(F)c2)n1` [N-((3S)-2-oxopyrrolidin-3-yl)(6-(2-cyanophenyl)-2-{[2-(3-fluorophenyl)ethyl]amino}(3-pyridyl))carboxamide]: the IC50 was determined as 3250 nM. With `N#Cc1ccccc1-c1ccc(C(=O)NCC2CCCCCN2)c(NCCc2cccc(F)c2)n1` (stereo not shown) [N-(azaperhydroepin-2-ylmethyl)(6-(2-cyanophenyl)-2-{[2-(3-fluorophenyl)ethyl]amino}(3-pyridyl))carboxamide] the figure was 2500 nM.

As for `NC(=O)CNC(=O)c1ccc(-c2ccc(CO)s2)nc1NCCc1cccc(F)c1` [N-(carbamoylmethyl)(2-{[2-(3-fluorophenyl)ethyl]amino}-6-[5-(hydroxymethyl)(2-thienyl)](3-pyridyl))carboxamide], the IC50 came to 496 nM. Next, `NC(=O)CNC(=O)c1cc(F)c(-c2cn[nH]c2)nc1NCCc1cccc(F)c1` [N-(carbamoylmethyl)(5-fluoro-2-{[2-(3-fluorophenyl)ethyl]amino}-6-pyrazol-4-yl(3-pyridyl))carboxamide]: 140 nM; `N#Cc1ccccc1-c1ccc(C(=O)NCC(N)=O)c(NCCc2cccc(F)c2)n1` [N-(carbamoylmethyl)(6-(2-cyanophenyl)-2-{[2-(3-fluorophenyl)ethyl]amino}(3-pyridyl))carboxamide]: 104 nM.

With `NC(=O)CNC(=O)c1ccc(-c2ccccc2)nc1NCCc1ccccc1` [N-(carbamoylmethyl){6-phenyl-2-[(2-phenylethyl)amino](3-pyridyl)}carboxamide], the IC50 turned out to be 810 nM. With `O=C(NCc1ncc[nH]1)c1ccc(-c2ccccc2)nc1NCCc1ccccn1` [N-(imidazol-2-ylmethyl){6-phenyl-2-[(2-(2-pyridyl)ethyl)amino](3-pyridyl)}carboxamide] the figure was 6150 nM.
